According to patent US5663205A, “Pharmaceutical composition for use in glaucoma treatment” (Senju Pharmaceutical Co. Ltd., priority 1992, dated 1997):

Experiments:
[1] = test system: Hypertensive Intraocular Pressure Induced by Laser Irradiation; experiment: Test Example 5: hypertensive intraocular pressure induced by laser irradiation, pigmented rabbits; format: in vivo; details: 0.5% aqueous solution
Protocol: Intraocular Pressure Reducing Activity of 0.5% Aqueous Solution of Amosulalol Hydrochloride on Hypertensive Intraocular Pressure Induced by Laser Irradiation in Pigmented Rabbits
With 5 male pigmented rabbits weighing about 2 kg used as test animals, 50 μl of 0.5% aqueous solution of amosulalol hydrochloride was applied in a 50 μl portion to one eye of each rabbit, with 50 μl of physiological saline being given to the other. 30 min later, a laser beam was irradiated onto 6 different spots (spot size: 200 μm, power of 0.5 W, for 0.1 sec) of the irises in both eyes in such a manner that the spots were located at an equal distance. Intraocular pressure was measured for both eyes using PTG before instillation as well as before laser irradiation and 15, 30 and 45 min after laser irradiation.
FIG. 7 is a graph showing the intraocular pressure reducing activity of 0.5% aqueous solution of amosulalol hydrochloride on hypertensive intraocular pressure induced by laser irradiation in pigmented rabbits, with time (min) after laser irradiation taken as abscissa and intraocular pressure (mmHg) as ordinate; each value in mean ± S.E. (the number in each case is 8). The signs "a" and "c" designate physiological saline and 0.5% aqueous solution of amosulalol hydrochloride, respectively.

[2] = test system: Normal Intraocular Pressure; experiment: Test Example 3: intraocular pressure, consecutive application for 5 days, pigmented rabbits; format: in vivo; details: 0.5% aqueous solution
Protocol: Intraocular Pressure Reducing Activity of Amosulalol Hydrochloride by Consecutive Application for 5 Days on Normal Intraocular Pressure in Pigmented Rabbits
Eight (8) male pigmented rabbits weighing about 2 kg, after having been confirmed to be free from ocular abnormalities, were bred in a breeding room maintained at a temperature of 24± 4° C. and at a relative humidity of 55± 15%, while they were given solid food (Labo RG-RO, manufactured by Nihon Nohsan Kogyo K.K.) at a daily rate of 100 g per rabbit and allowed free access to tap water as drinking water.
For the 8 pigmented rabbits bred by the above procedure, 50 μl of 0.5% aqueous solution of amosulalol hydrochloride was applied to one eye, with 50 μl of physiological saline being given topically to the other. Intraocular pressure was measured before the first instillation and at regular intervals of 1 hour up to 8 hours after application on Days 1 and 5, and before the first instillation and 2 or 3 hours after application on Days 2, 3 and 4, respectively, with intraocular pressure additionally being measured 24 hours after the first instillation on Day 5.
The signs "a" and "c" designate physiological saline, 0.5% aqueous solution of amosulalol hydrochloride, respectively.

[3] = test system: Normal Intraocular Pressure; experiment: Test Example 2 (1): intraocular pressure reducing activity on normal intraocular pressure, pigmented rabbits; format: in vivo, pigmented rabbits (Dutch belted rabbits)
Protocol: Intraocular Pressure Reducing Activity of Amosulalol Hydrochloride on Normal Intraocular Pressure in Pigmented Rabbits Forty (40) male pigmented rabbits (Dutch belted rabbits) weighing about 2 kg, after having been confirmed to be free from ocular abnormalities, were bred in a breeding room maintained at a temperature of 24± 4° C. and at a relative humidity of 55± 15%, while they were fed solid food (Labo RG-RO, manufactured by Nihon Nohsan Kogyo K.K.) at a daily rate of 100 g per rabbit and allowed free access to tap water as drinking water. As a test drug, amosulalol hydrochloride was processed into 0.05%, 0.5% and 1.0% aqueous solutions which were used in the test, and 0.5% timolol maleate ophthalmic solution [Timoptol (registered trademark): Ban-yu Pharmaceutical Co.] and physiological saline were used as a positive control drug and a control substance, respectively. (1) Measurement of intraocular pressure: Forty (40) rabbits were divided into five groups. each consisting of 8 heads, and 50 μl of test drug as well as the control drug and physiological saline were applied topically to one eye each of the individual rabbits, with the other being left untreated. Before instillation and 0.5, 1, 2, 3, 4, 6 and 8 hours after topical application respectively, intraocular pressure for both eyes of each rabbit was measured using PTG. Time-course changes of intraocular pressure measurements taken with the eyes treated by instillation of each of the test drugs, control drug and physiological saline, are illustrated in FIGS. 2 (for treated eyes) and 3 (for non-treated eyes), respectively, with time (hour) after instillation taken as abscissa and intraocular pressure (mmHg) as ordinate; each value in mean ± S.E. (the number in each case is 8). The signs "a", "b", "c", "d" and "e" designate physiological saline, 0.05% aqueous solution of amosulalol hydrochloride, 0.5% aqueous solution of amosulalol hydrochloride, 1.0% aqueous solution of amosulalol hydrochloride and 0.5% solution of timolol maleate, respectively.

cornea = experiment: Test Example 7 (2)(d): observation on fluorescein-dyed spots of the cornea; format: in vivo, Japanese white rabbits; details: 1% and 0.5% ophthalmic solutions, 28 days
Protocol: (2) Ocular local toxicity test in rabbits of 1.0% and 0.5% ophthalmic solutions of amosulalol hydrochloride by consecutive instillation for 28 days: With 15 male Japanese white rabbits divided into 3 groups each consisting of 5 rabbits, 1.0% and 0.5% ophthalmic solutions of amosulalol hydrochloride as well as physiological saline as a control were applied in one drop (0.05 ml) per time to the right eye of each rabbit alone, four times a day at a regular interval of 2.5 hours, for 28 days consecutively with the left eye being left untreated. (d) Observation on fluorescein-dyed spots of the cornea: Before instillation of 1.0% and 0.5% ophthalmic solutions of amosulalol hydrochloride as well as on the day (Day 1) of initiating the instillation and on the 2nd, 4th, 7th, 14th, 21st, 28th days after initiating the instillation but each time after completion of such instillation, and on the morning of the last instillation (29th day), 10 μl of 0.1% aqueous fluorescein solution was applied topically to the eyes of each test animal, and observation was performed on the abrasion of the corneal epithelial cells with a photo-slit lamp.

conjunctiva = experiment: Test Example 2: conjunctival hyperemia, pigmented rabbits; format: in vivo, pigmented rabbits (Dutch belted rabbits); details: concentrations of less than 0.5%

SMILES: COc1ccccc1OCCNCC(O)c1ccc(C)c(S(N)(=O)=O)c1.Cl (centres unmarked) [amosulalol hydrochloride, 5-[1-hydroxy-2-[2-(2-methoxyphenoxy)ethylamino]ethyl]-2-methylbenzenesulfonamide hydrochloride]
- decrease in intraocular pressure before laser irradiation ([1]; 30 min after instillation, immediately before laser irradiation): 4.5 mmHg
- suppressory activity against increase of the intraocular pressure ([1]; laser irradiation): exhibits suppressory activity against increase of the intraocular pressure
- intraocular pressure after laser irradiation ([1]; physiological saline increased by 7.9 mmHg about 15 min after irradiation): increased to almost the same level as before instillation
- return of intraocular pressure to the initial value (time) ([2]; Day 1): 24 h
- maximum drop in intraocular pressure ([2]; Day 1, 2 hours after the first instillation): 4.8 mmHg
- further decrease in intraocular pressure by second instillation ([2]; Day 1, second instillation 4 hours later): not found to bring about any further decrease in intraocular pressure
- decrease in intraocular pressure ([2]; Day 2, 2 hours after instillation): significant decrease in intraocular pressure
- decrease in intraocular pressure ([2]; Day 3): no significant intraocular pressure drop
- decrease in intraocular pressure ([2]; Day 4): significant decrease in intraocular pressure
- decrease in intraocular pressure ([2]; Day 5, any measuring time): almost the same degree of intraocular pressure decrease as on Day 1
- tachyphylaxis ([2]; three times a day for 5 days): free from tachyphylaxis
- maximum drop in intraocular pressure ([3]; 0.05% aqueous solution, treated eyes, 2 hours after instillation): 3.6 mmHg
- intraocular pressure reducing activity compared with 0.5% timolol maleate ophthalmic solution ([3]; 0.05%, normal eyes): more potent intraocular pressure reducing activity
- maximum decrease in intraocular pressure ([3]; 0.5% aqueous solution, treated eyes, 2 hours after topical application): 6.2 mmHg
- significant drop in intraocular pressure until (time after topical application) ([3]; 0.5% aqueous solution, treated eyes, from 30 min): 4 h
- maximum decrease in intraocular pressure ([3]; 1.0% aqueous solution, treated eyes, 3 hours after instillation): 9.0 mmHg
- decrease in intraocular pressure sustained until (time after instillation) ([3]; 1.0% aqueous solution, treated eyes, sustained from 30 min after instillation): 6 h
- change in intraocular pressure of the other, non-treated eyes ([3]; non-treated eyes (FIG. 3)): no significant change
- observation of fluorescein-dyed spots in the cornea (cornea): no abnormalities
- conjunctival hyperemia (conjunctiva): merely a slight degree of conjunctival hyperemia
